{"source": "patent US20160256504A1", "about": "“[…] COMPOSITION CONTAINING […] MUSHROOM [[…] EDODES] […] CULTURE AND NATTO BACTERIA [BACILLUS SUBTILIS NATTO] CULTURE” (HK Biotech Co., LTD., priority 2014, published 2016)", "key": {"blood homocysteine": {"tested_on": "blood homocysteine", "details": "rats, hyperhomocysteinemia induced by guanidinoacetic acid injection, EA injected; cited from earlier work"}, "NO": {"tested_on": "NO", "assay": "NO content in NAME-induced hypertensive rat model", "type": "in vivo", "details": "NAME-induced hypertensive rats", "protocol": "(§1) The biochemical markers relating to the blood pressure were measured, by collecting blood and organs of the rats used in the experimental examples 1 (non-genetic NAME-induced hypertension) and 3 (4-week-treatments on SHR). […] And from the rats of the experimental example 3, ACE activity and the activity of plasma plasminogen activator inhibitor-1 (PAI-1) of the plasma and the livers were measured. […] The following TABLE 5 is describing NO content and NOS activity of shiitake mushroom mycelium culture and natto bacteria culture mixture in the NAME-induced hypertensive rat model."}, "NOS": {"tested_on": "NOS", "assay": "NOS activity in NAME-induced hypertensive rat model", "type": "in vivo", "details": "NAME-induced hypertensive rats", "protocol": "as §1"}, "[1]": {"tested_on": "plasma plasminogen activator inhibitor-1 (PAI-1)", "assay": "Plasma PAI-1 content in SHR after 4-week treatment", "type": "in vivo, rat"}}}
{"smiles": "Nc1ncnc2c1ncn2C[C@@H](O)[C@@H](O)C(=O)O", "note": "[EA, eritadenine]", "values": [{"measurement": "blood homocysteine", "setting": "blood homocysteine", "result": "reduced"}]}
{"smiles": "NNc1nncc2ccccc12", "note": "[hydralazine]", "values": [{"measurement": "NO Lung", "setting": "NO; 0 week", "result": 10, "unit": "nM/ml"}, {"measurement": "NO Lung", "setting": "NO; 4 weeks", "result": 7, "unit": "nM/ml"}, {"measurement": "NO Plasma", "setting": "NO; 0 week", "result": 21, "unit": "nM/ml"}, {"measurement": "NO Plasma", "setting": "NO; 4 weeks", "result": 20, "unit": "nM/ml"}, {"measurement": "NOS Aorta", "setting": "NOS; 0 week", "result": 0.80, "unit": "NO pmle/mg protein/min"}, {"measurement": "NOS Aorta", "setting": "NOS; 4 weeks", "result": 1.08, "unit": "NO pmle/mg protein/min"}, {"measurement": "NOS Plasma", "setting": "NOS; 0 week", "result": 6.0, "unit": "NO umole/L"}, {"measurement": "NOS Plasma", "setting": "NOS; 4 weeks", "result": 8.5, "unit": "NO umole/L"}]}
{"smiles": "C[C@H](CS)C(=O)N1CCC[C@H]1C(=O)O", "note": "[CP, captopril]", "values": [{"measurement": "Plasma PAI-1", "setting": "[1]; 0 week", "result": 113, "unit": "pg/mL"}, {"measurement": "Plasma PAI-1", "setting": "[1]; 4 weeks", "result": 127, "unit": "pg/mL"}]}
